Where a SMILES comes first, the peptide text is derived from it. Bridges are numbered along the chain shown (N, C = ends).
How the values were obtained:
CK2 holoenzyme = molecular target: T1, CK2 holoenzyme (Homo sapiens, UniProt P68400); test: CK2 kinase assay with CK2β-independent peptide substrate; assay type: biochemical; details: CK2 holoenzyme 100 nM, 15 min at 4 °C; at high TAT-Pc 13 concentrations
T1 construct: made in house
Method: Figure 4 Inhibitory activity of a TAT-Pc analogue in vitro. (A) CK2 holoenzyme (100 nM) was incubated in the presence of increasing concentrations of TAT-Pc 13 for 15 min at 4 °C. CK2 activity was then determined with CK2β-dependent or independent peptide substrates; (B) [^35S]-labeled CK2α was incubated with biotinylated MBP-CK2β immobilized on streptavidin coated plates (preformed complex) in the absence (1) or presence (2) of TAT-Pc 13. Alternatively, [^35S]-labeled CK2α was incubated with TAT-Pc 13 (3) or random TAT-Pc 13 (4) and then with immobilized biotinylated MBP-CK2β. After washing, the amount of [^35S]-labeled CK2α remaining in the complex was determined by radioactivity counting. Representative data shown from two independent experiments. Results are presented as mean ± s.d. of triplicates.
CK2 kinase assays were performed in a phosphorylation buffer containing recombinant CK2α (36 ng) or recombinant CK2 holoenzyme (50 ng) and a mixture containing 10 mM MgCl2 and 1 μCi of [γ-32P]ATP and 0.15 M NaCl in the presence of 0.2 mM of the CK2β-independent substrate […] [28] or the CK2β-dependent substrate […] [18]. […] Kinase reactions were terminated by the addition of 60 μL of 4% trichloroacetic acid and sample adsorption on phosphocellulose P81 paper, which were washed in 0.5% phosphoric acid and counted in a scintillation counter.

[1] = molecular target: T2, CK2α/CK2β subunit interaction in MCF-10A cells (Homo sapiens, UniProt P68400); test: In situ proximity ligation assay of CK2α and CK2β; assay type: cell-based; details: 50 µM, 6 h, WT MCF-10A cells; positive control 4.8 ± 1.5 dots/cell
T2 construct: endogenous in cells; host or cells: MCF-10A (WT)
Method: Figure 7 Uptake and cellular effects of TAT-Pc 13. (A) kinetic of TAMRA-TAT-Pc 13 uptake in MCF-10A cells; (B) WT or CK2β-depleted MCF-10A cells were incubated with 50 µM TAT or TAT-Pc 13 for 8 h and the expression of CK2 subunits was evaluated by Western blot; (C) anti-CK2β immunoprecipitates were prepared from WT MCF-10A cells incubated with 50 µM TAT or TAT-Pc 13 for 2 h. Presence of CK2 subunits in the corresponding immunoprecipitates was determined by Western blot; (D) in situ proximity ligation images of MCF-10A cells incubated with 50 µM TAT (a,b,d) or TAT-Pc 13 (c) for 6 h. WT cells were incubated with CK2α antibody alone (a) or CK2α and CK2β antibodies (b,c). […]
PLA is an antibody-based method representing a reliable readout of molecular proximity of two antigens located on two distinct proteins. […] The fluorescent signal from each pair of PLA probes confirms a close proximity and not simply subcellular colocalization and can then be detected and quantified as fluorescent spots in microscopic images of the cells. […] No signal was detected in CK2β-depleted cells (panel d).
In situ PLAs were performed using a Duolink kit (Olink Bioscience, Uppsala, Sweden) according to the manufacturer’s instructions with some modifications. […] Images were observed using a Zeiss Apotome microscope and analyzed using a Zen Pro imaging software (Zeiss, Oberkochen, Germany). […]

786-0 = test: Cell death of cancerous cell line; assay type: cell-based

T1 sequence (P68400 whole entry): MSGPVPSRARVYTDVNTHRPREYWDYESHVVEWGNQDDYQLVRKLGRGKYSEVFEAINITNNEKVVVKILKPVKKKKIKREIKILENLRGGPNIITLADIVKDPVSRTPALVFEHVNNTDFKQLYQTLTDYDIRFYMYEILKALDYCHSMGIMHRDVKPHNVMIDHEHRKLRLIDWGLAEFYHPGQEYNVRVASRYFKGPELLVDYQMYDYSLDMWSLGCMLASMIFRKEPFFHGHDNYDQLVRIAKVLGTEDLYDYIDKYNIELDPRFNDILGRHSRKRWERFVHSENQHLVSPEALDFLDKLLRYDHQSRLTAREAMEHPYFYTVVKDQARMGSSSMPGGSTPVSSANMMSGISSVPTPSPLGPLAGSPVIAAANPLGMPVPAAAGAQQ
T2 sequence (P68400 whole entry): as above

With CC[C@H](C)[C@@H]1NC(=O)[C@H](CCCCN)NC(=O)[C@H](Cc2ccccc2)NC(=O)CNC(=O)[C@H](Cc2ccc(O)cc2)NC(=O)[C@H](CC(C)C)NC(=O)[C@H](CCCNC(=N)N)NC(=O)CNC(=O)CNC(=O)[C@@H](NC(=O)[C@H](CCC(N)=O)NC(=O)[C@@H]2CCCN2C(=O)[C@@H]2CCCN2C(=O)[C@H](CCCNC(=N)N)NC(=O)[C@H](CCCNC(=N)N)NC(=O)[C@H](CCCNC(=N)N)NC(=O)[C@H](CCC(N)=O)NC(=O)[C@H](CCCNC(=N)N)NC(=O)[C@H](CCCNC(=N)N)NC(=O)[C@H](CCCCN)NC(=O)[C@H](CCCCN)NC(=O)[C@H](CCCNC(=N)N)NC(=O)CN)CCCCNC(=O)CNC(=O)CNC(=O)[C@H](Cc2c[nH]cn2)NC1=O [TAT-Pc 13] (H-GRKKRRQRRRPPQKGGRLYGFKIHGG; lactam 14-C; N-terminus assumed) the CK2β-independent peptide phosphorylation (CK2 holoenzyme) was “significantly stimulated”, the “number of CK2α/CK2β interaction dots” value [1] was 2.2 ± 1.1 dots/cell and the “induction of cell death” value (786-0) was “induce cell death”.
